Tests used:
Type in all cases: biochemical
human plasma polymerase [1] = experiment: Resurrection of plasma polymerase activity after treatment with cysteine-modifying agents; conditions: for Polymerase activity after second incubation with indicated substance (% of control): no destroying agent in first incubation; for Conditions required to reactivate polymerase activity treated with the agent: 3 mM agent, then reactivating substances; for Polymerase activity after second incubation with DTT (% of control) / Polymerase activity after second incubation with MSA (% of control) / Polymerase activity after second incubation with cysteine (% of control) / Polymerase activity after second incubation with glutathione (% of control): 3 mM destroying agent first
Method: A set of human plasma samples (60% plasma in water) was first incubated with 3 mM of indicated cysteine-modifying substance or water (as control) at room temperature for 1 hour. Serial dilutions of five potentially reactivating substances were then added and the samples were incubated for another hour. Each sample was finally diluted 1:20 and residual RT activity was determined with Cavidi® HS kit Lenti RT. The total reduction in substance concentration between sample incubation and RT assay was 200 times. The RT activities recovered were recalculated into percent of the activity of a control consisting of plasma incubated in absence of additions during both incubation steps.

human plasma RT = experiment: Selective destruction of endogenous RT activity in plasma, protocol I; conditions: EDTA plasma with disrupted lymphocytes, 1 hour at room temperature
Method: EDTA plasma with disrupted lymphocytes from a healthy blood donor and FIV diluted in inactivated foetal calf serum (totally devoid of plasma RT activity) were incubated for 1 hour at room temperature with indicated concentration of: A) 5,5′-dithiobis-(2-nitrobensoic acid), B) thimerosal. The samples were separated according to “Protocol for determination of retroviral RT from material which contains RT blocking antibodies”. The RT activities recovered were determined with an RT assay (Cavidi HS-kit Lenti RT).

human plasma polymerase [2] = experiment: Elimination of plasma polymerase without purification (substance, then cysteamine); conditions: one hour at room temperature, then 20 mM cysteamine; no purification
Method: A) EDTA plasma from a healthy blood donor, B) FIV virus diluted in inactivated FCS (devoid of RT activity) or C) in Dulbeco minimal essential medium with 5% FCS were diluted 1:1 and incubated with indicated concentration of 5,5′-dithiobis-(2-nitrobensoic acid) for one hour at room temperature (20° C.). Each sample was then serially diluted in fourfold steps in conditioning buffer (B). Cysteamine to a final concentration of 20 mM was then added to all samples and the set was incubated for another hour at room temperature. The RT activity of each sample was then determined using Cavidi® HS kit Lenti RT. 15 μl of each sample was added to 135 μl reaction mixture giving a final cysteamine concentration in assay of 2 mM. The RT activity recovered at the three first dilutions corresponding to 7.5, 1.9 and 0.5 μl sample per RT assay was recalculated into percentage of a control incubated in absence of substance and plotted against the substance concentration, see FIG. 6.

recombinant HIV 1 RT = biological target: T1, recombinant HIV 1 RT (Human immunodeficiency virus type 1 group M subtype B, UniProt P04585); experiment: RT assay (Cavidi HS-kit Lenti RT) with added components, recombinant HIV 1 RT; conditions: 12 ng odT, 100% = no addition
T1 construct: recombinant HIV 1 RT or FIV RT of cell culture origin was used as enzyme
Method: (§1) The effect of addition of indicated components to RT reaction mixture devoid of primer (Cavidi HS-kit Lenti RT) was investigated. EDTA plasma from two healthy blood donors (1 μl/assay), recombinant HIV 1 RT or FIV RT of cell culture origin was used as enzyme.

[3] = test system: FIV RT of cell culture origin; experiment: RT assay (Cavidi HS-kit Lenti RT) with added components, FIV RT; conditions: 12 ng odT, 100% = no addition
Method: as §1

[4] = test system: unidentified RT activity from human plasma; experiment: RT assay (Cavidi HS-kit Lenti RT) with added components, human plasma polymerase; conditions: 12 ng odT, 100% = no addition
Method: as §1

[5] = 0.1 M final concentration in RT assay
[6] = 1 mM final concentration in RT assay
[7] = 2.5 10^-6 M final concentration in RT assay

| Compound | Polymerase activity after second incubation with indicated substance (% of control) (human plasma polymerase [1]; 1.1 mM substance) | Polymerase activity after second incubation with indicated substance (% of control) (human plasma polymerase [1]; 3.3 mM substance) | Polymerase activity after second incubation with indicated substance (% of control) (human plasma polymerase [1]; 10 mM substance) | Polymerase activity after second incubation with indicated substance (% of control) (human plasma polymerase [1]; 30 mM substance) | Activity of indicated enzyme in RT assay, HIV (recombinant HIV 1 RT; [7]) | Activity of indicated enzyme in RT assay, FIV [3, 7] | Activity of indicated enzyme in RT assay, plasma 1 [4, 7] | Activity of indicated enzyme in RT assay, plasma 2 [4, 7] | also measured |
| --- | --- | --- | --- | --- | --- | --- | --- | --- | --- |
| O[C@H](CS)[C@H](O)CS (racemic) [DTT, Dithiothreitol] | 260% | 613% | 767% | 860% | – | – | – | – | – |
| O=C(O)c1cc(SSc2ccc([N+](=O)[O-])c(C(=O)O)c2)ccc1[N+](=O)[O-] [5,5′-Dithiobis-(2-nitrobenzoic acid)] | – | – | – | – | – | – | – | – | Concentration that totally eliminated the human plasma RT activity (human plasma RT): above 0.4 mM; Conditions required to reactivate polymerase activity treated with the agent (human plasma polymerase [1]): required strongly reductive low molecular weight thiols for activation; Polymerase activity after second incubation with DTT (% of control) (human plasma polymerase [1]; 1.1 mM DTT): 0%; Polymerase activity after second incubation with MSA (% of control) (human plasma polymerase [1]; 1.1 mM MSA): 0%; Polymerase activity after second incubation with DTT (% of control) (human plasma polymerase [1]; 3.3 mM DTT): 1%; Polymerase activity after second incubation with MSA (% of control) (human plasma polymerase [1]; 3.3 mM MSA): 0%; Polymerase activity after second incubation with DTT (% of control) (human plasma polymerase [1]; 10 mM DTT): 143%; Polymerase activity after second incubation with MSA (% of control) (human plasma polymerase [1]; 10 mM MSA): 0%; Polymerase activity after second incubation with DTT (% of control) (human plasma polymerase [1]; 30 mM DTT): 122%; Polymerase activity after second incubation with MSA (% of control) (human plasma polymerase [1]; 30 mM MSA): 0%; Polymerase activity after second incubation with cysteine (% of control) (human plasma polymerase [1]; 30 mM cysteine): 7%; Polymerase activity after second incubation with glutathione (% of control) (human plasma polymerase [1]; 30 mM glutathione): 2%; Concentration after which human plasma polymerase activity was eliminated (human plasma polymerase [2]): above 0.47 mM |
| Cc1ccc(S(=O)(=O)[N-]Cl)cc1.[Na+] [Chloramine T] | – | – | – | – | – | – | – | – | Conditions required to reactivate polymerase activity treated with the agent (human plasma polymerase [1]): required strongly reductive low molecular weight thiols for activation; Polymerase activity after second incubation with DTT (% of control) (human plasma polymerase [1]; 1.1 mM DTT): 2%; Polymerase activity after second incubation with MSA (% of control) (human plasma polymerase [1]; 1.1 mM MSA): 6%; Polymerase activity after second incubation with DTT (% of control) (human plasma polymerase [1]; 3.3 mM DTT): 51%; Polymerase activity after second incubation with MSA (% of control) (human plasma polymerase [1]; 3.3 mM MSA): 0%; Polymerase activity after second incubation with DTT (% of control) (human plasma polymerase [1]; 10 mM DTT): 80%; Polymerase activity after second incubation with MSA (% of control) (human plasma polymerase [1]; 10 mM MSA): 1%; Polymerase activity after second incubation with cysteine (% of control) (human plasma polymerase [1]; 10 mM cysteine): 4%; Polymerase activity after second incubation with glutathione (% of control) (human plasma polymerase [1]; 10 mM glutathione): 3%; Polymerase activity after second incubation with DTT (% of control) (human plasma polymerase [1]; 30 mM DTT): 94%; Polymerase activity after second incubation with MSA (% of control) (human plasma polymerase [1]; 30 mM MSA): 0%; Polymerase activity after second incubation with cysteine (% of control) (human plasma polymerase [1]; 30 mM cysteine): 9% |
| [Cl-].[K+] [KCl] | – | – | – | – | – | – | – | – | Activity of indicated enzyme in RT assay, HIV (recombinant HIV 1 RT; [5]): 87%; Activity of indicated enzyme in RT assay, FIV [3, 5]: 110%; Activity of indicated enzyme in RT assay, plasma 1 [4, 5]: 17%; Activity of indicated enzyme in RT assay, plasma 2 [4, 5]: 20% |
| O=C(O)CC(S)C(=O)O (centres unmarked) [MSA, Mercaptosuccinic acid] | 109% | 110% | 64% | 7% | – | – | – | – | – |
| O=C([O-])P(=O)(O)O.O=C([O-])P(=O)(O)O.O=C([O-])P(=O)(O)O.[Na+].[Na+].[Na+] [PFA, trisodium phosophonoformate] | – | – | – | – | – | – | – | – | Activity of indicated enzyme in RT assay, HIV (recombinant HIV 1 RT; [6]): 1%; Activity of indicated enzyme in RT assay, plasma 1 [4, 6]: 92%; Activity of indicated enzyme in RT assay, plasma 2 [4, 6]: 94% |
| NCCS [cysteamine] | 15% | 9% | 6% | 6% | – | – | – | – | – |
| N[C@@H](CS)C(=O)O [cysteine] | 72% | 82% | 145% | 198% | – | – | – | – | – |
| Nc1ncnc2c1ncn2[C@H]1CC[C@@H](COP(=O)(O)OP(=O)(O)OP(=O)(O)O)O1 [ddATP] | – | – | – | – | 90% | 79% | 94% | 105% | – |
| Nc1ccn([C@H]2CC[C@@H](COP(=O)(O)OP(=O)(O)OP(=O)(O)O)O2)c(=O)n1 [ddCTP] | – | – | – | – | 89% | 75% | 94% | 103% | – |
| Nc1nc2c(ncn2[C@H]2CC[C@@H](COP(=O)(O)OP(=O)(O)OP(=O)(O)O)O2)c(=O)[nH]1 [ddGTP] | – | – | – | – | 94% | 93% | 103% | 109% | – |
| Cc1cn([C@H]2CC[C@@H](COP(=O)(O)OP(=O)(O)OP(=O)(O)O)O2)c(=O)[nH]c1=O [ddTTP] | – | – | – | – | 18% | 28% | 7% | 9% | – |
| N[C@@H](CCC(=O)N[C@@H](CS)C(=O)NCC(=O)O)C(=O)O [glutathione] | 72% | 78% | 80% | 13% | – | – | – | – | – |
